Laboratory results taken from PMC9114799, “In vitro Evaluation of Isoniazid Derivatives as Potential Agents Against Drug-Resistant Tuberculosis” (Frontiers in Pharmacology, 2022).
Converted amounts (≈) assume the structure as drawn. “And” between values parts separate entries of the source, which are not always exact repeats. Equal values may be shown once. Read-outs that look alike come from different tables or passages of the source. Marks after values point to notes of the source that are not given here.

How the values were obtained:
[1] = molecular target: warfarin binding site of HSA (Sudlow's binding site I) (Homo sapiens, UniProt P02768); assay: Competitive binding with warfarin (HSA Sudlow's binding site I)
warfarin binding site of HSA (Sudlow's binding site I), sequence (P02768 25-609): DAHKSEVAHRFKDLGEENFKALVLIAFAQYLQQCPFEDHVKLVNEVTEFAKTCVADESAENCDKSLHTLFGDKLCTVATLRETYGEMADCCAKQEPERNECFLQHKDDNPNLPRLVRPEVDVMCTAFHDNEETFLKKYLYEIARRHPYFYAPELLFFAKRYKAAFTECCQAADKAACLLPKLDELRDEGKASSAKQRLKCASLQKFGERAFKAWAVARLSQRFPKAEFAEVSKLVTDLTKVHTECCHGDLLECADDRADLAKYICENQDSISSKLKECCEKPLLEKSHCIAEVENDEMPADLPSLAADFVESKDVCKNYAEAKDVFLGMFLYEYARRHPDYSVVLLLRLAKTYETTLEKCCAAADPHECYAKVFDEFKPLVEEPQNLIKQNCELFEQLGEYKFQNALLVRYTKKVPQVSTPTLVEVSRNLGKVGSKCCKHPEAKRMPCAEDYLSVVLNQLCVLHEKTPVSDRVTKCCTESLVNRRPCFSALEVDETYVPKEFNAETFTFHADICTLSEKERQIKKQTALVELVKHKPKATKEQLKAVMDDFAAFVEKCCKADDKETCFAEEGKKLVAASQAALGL
Method: Warfarin stock solution was also prepared with DMSO.
The interaction of INH and its derivatives with HSA was further examined regarding their putative binding site.
Using the dampening in the fluorescence intensity of warfarin it is possible to retrieve the HSA-compound dissociation constant for the binding site of warfarin (K dc) - Table 3.
From this variation it is possible to retrieve C50, the concentration of compound that displaces half of […]
This concentration is given by the fluorescence intensity corresponding to […]
the intensity of warfarin in water (buffer), which was obtained for warfarin in PBS in the absence of HSA. The C50 value was retrieved for each replicate and the average was used to calculate the Kdc of […]
(1 picture or pasted object on this page, not shown here)

[2] = molecular target: T1, human serum albumin (HSA) (Homo sapiens, UniProt P02768); settings: for 10-3 K’b / M-1, HSA binding constant from fluorescence intensity variation not accounted for by the decrease in lifetime: head prints 10-3 K’b / M-1, reverse of the dissociation constant
T1 sequence (P02768 25-609): as above
Method: (§1) INH and INH derivatives stock solutions were prepared in DMSO. From the stock solutions, appropriate dilutions were prepared so that each compound was added to HSA in PBS at different concentrations ensuring that DMSO was at a fixed concentration of 5% (v/v) in the final solution. […] Three or more independent replicates were prepared and analyzed for each system.
Quartz Suprasil® cuvettes with 1 × 0.4 cm path length were used to gather the spectroscopic data.
The bandwidth was 4 nm in both excitation and emission paths.
Whenever the decrease in τ¯ is smaller than the decrease in the steady-state fluorescence intensity, there are multiple quenching mechanisms responsible for a decrease in fluorescence quantum yield, one affecting the amplitude-weighted mean fluorescence lifetime and the fluorescence intensity alike, and another affecting only the fluorescence intensity (a static quenching mechanism). Therefore, for each data point, the decrease in fluorescence intensity that was not due to a decrease in τ¯ was calculated. These values were used to obtain yet another dissociation constant that corresponds to the binding process affecting only the steady-state fluorescence intensity, also shown in Table 3 (K’d). […] This is a consequence of the much larger relative decrease in fluorescence intensity when compared with the decrease in fluorescence lifetime.
For a static quenching mechanism, K represents the association constant for the formation of non-fluorescent HSA-compound ground-state complex. Therefore, the reverse of K gives an estimate of the dissociation constant. By fitting a straight line to the data in Figure 8 forcing a unitary intercept, i.e., assuming a Stern-Volmer-like behaviour, a reasonable correlation coefficient was obtained in all cases.

[3] = octanol-water, cited from earlier work
[4] = tested on: HepG2 cells; assay: HepG2 cell viability assay (MTT), 72 h; format: cell-based, human; settings: for IC50: Homo sapiens, HepG2, 72 h incubation, MTT, 0.5% DMSO, read-out: IC50 against HepG2 cells
Method: HepG2 cells were plated on 384-well tissue culture treated polystyrene plates at 2000 cells in 25 μl of HepG2 maintenance medium per well. After an overnight incubation at 37°C, the cells were dosed with test compounds in dimethyl sulfoxide (DMSO) and controls over wide ranges of concentrations (Table 1) and incubated for 72 h at 37°C. DMSO was at 0.5% in the final solution. The aqueous solubility of the compounds limited the range of concentrations tested. Cell viability was measured using the Promega CellTiter 96 Non-Radioactive Cell Proliferation Assay (MTT) kit by adding the Dye Solution to each well and incubating for 3 h at 37°C. After incubation, the Solubilization Solution/Stop Mix was added to each well. Plates were incubated at 37°C for 1 h, mixed on a plate shaker for 10 min and then absorbance was read at 570 nm. Cell viability was determined by comparison against control cells in the presence of DMSO only and was measured in three independent replicates for each compound concentration. The IC50 was calculated with GraphPad Prism using a Sigmoidal Dose-response (variable slope) algorithm. Chlorpromazine, a drug with a well-known and characterized hepatotoxicity ([Frötschl et al., 2005]; [Gandhi et al., 2013]; [Morgan et al., 2019]), was used as the positive control.
To evaluate the in vitro toxicity of this series of INH derivatives, the viability of HepG2 cells, a human liver cancer cell line, was determined by the MTT tetrazolium reduction assay ([Riss et al., 2013]), a colorimetric assay to assess cell metabolic activity, and the IC50 value, i.e., the concentration for 50% reduction in cell viability, was obtained for each compound (Supplementary Figure S6). […] The hepatoxicity of INH is well described ([Girling, 1978]; [Wu and Cederbaum, 1996]; [Huang et al., 2003]; [Bhadauria et al., 2007]; [Singh et al., 2011]) and is much lower than that of chlorpromazine.

[5] = molecular target: T1, human serum albumin (HSA); settings: for 10-3 K’’b / M-1, HSA binding constant from the variation in amplitude-weighted mean fluorescence lifetime: head prints 10-3 K’’b / M-1, reverse of the dissociation constant
Method: as §1
Time-resolved fluorescence measurements were carried out by the single photon counting technique, using a nanoLED N-280 (Horiba Jobin Yvon, Villeneuve D'ascq, France) for the excitation of the protein. […] Ludox® was the scattering agent used to obtain the instrumental response function. The experimental fluorescence intensity decays were analysed with the software TRFA® version 1.4 (Minsk, Belarus). The fluorescence intensity decays, I(t), were analysed by fitting a sum of exponentials, and the decay law was then obtained according to Eq. 1: I(t)= ∑i=1nαi⁡exp(−t/τi) (1) where α i and τ i are the normalized amplitude and lifetime of component i, respectively.
The changes in quantum yield due to processes affecting the fluorescence lifetime were assessed from the amplitude-weighted mean fluorescence lifetime, τ¯ , calculated using Eq. 2: τ¯=∑i=1nαiτi (2)
When used to analyse time-resolved fluorescence data, F is replaced by τ¯ .

[6] = tested on: M. tuberculosis H37Rv ATCC27294 (wt); settings: ref Martins et al., cited from earlier work
[7] = tested on: HepG2; settings: cited from earlier work
[8] = tested on: M. tuberculosis H37Rv ATCC27294 (wt); assay: microbe, parasite or virus in culture; format: cell-based; design: MIC (wt): unit not given here; settings: for MIC: Mycobacterium tuberculosis, wt Mtb H37Rv, tested from 0.03125 to 128 µM; for MIC (wt): Table S1; for activity against the wild-type strain: in words
[9] = Octanol-water partition coefficient, shake-flask method; format: physicochemical; settings: pH 7.5, room temperature, preliminary assessment
Method: Lipophilicity was evaluated as log Po/w, the octanol-water partition coefficient obtained by the shake-flask method ([Ràfols et al., 2012]; [Martins et al., 2014]), and as log Kp(NaDS/w) the partition coefficient towards sodium dodecyl sulfate (NaDS) anionic micelles obtained by differential spectrophotometry for INH, INH-C10, N33 and N34 in previous works ([Ràfols et al., 2012]; [Martins et al., 2014]; [Santos et al., 2020]). […] For both compounds, samples were dissolved in water-saturated octanol at pH 7.5 (KH2PO4/NaOH) to guarantee negligible ionization. The partition to octanol-saturated aqueous buffer was evaluated, at room temperature, using a volume ratio, ro/w, of 5/30 and 10/30 for N33red and 2.5/40, 5/40 for N34red, after sonication of the solutions and partition on a mechanical tumbler. Equilibrium concentrations were determined by UV-Vis spectrophotometry between 200 and 500 nm after phase separation.

[10] = format: physicochemical; settings: for stability in aqueous solution: pH 7.4; for fluctuation of the absorption spectra in the UV region: over 3 days, PBS pH 7.4 with 5 % DMSO, N33red at 240 nm, N34red at 269 nm
Method: INH-C10, N33 and N34 were obtained as fully described in reference ([Martins et al., 2014]). N33red and N34red were obtained by reduction of the parent Schiff base. Sodium cyanoborohydride (2 equiv.) was added portion wise to a solution of N33 or N34 in hot methanol. The reaction mixture was acidified with methanolic HCl 5M until pH 3; at that point the solution color changed to dark yellow. The reaction was kept under reflux and monitored by TLC until the starting material was consumed. The solvent was then evaporated under reduced pressure, giving an orange-yellow oil. This residue was dissolved in water and basified to pH > 7 by addition of a few drops of NaOH 6 M, to break up the possible cyanoborate adducts. The solution was then washed with brine and extracted several times with dichloromethane, the combined organic extracts were dried with MgSO4 and the solvent evaporated under reduced pressure affording crude yellowish solids. Pure N33red and N34red were obtained after column chromatography with Et2O/MeOH 96.5:3.5 and by recrystallization from CH2Cl2/petroleum ether 2:3, respectively (adapted from ([Borch et al., 1971])). Both N33red and N34red are very stable in aqueous solution (PBS with 5% DMSO) for at least 48 h (Supplementary Figure S5).
Figure S5 – Electronic absorption spectra of N33red and N34red in PBS buffer pH 7.4 with 5 % DMSO
were monitored over 3 days. The fluctuation of the spectra in the UV region of N33red at 240 nm was
less than 1.2% while for N34red at 269 nm was less than 2.5%. The time dependence of the absorbance
uncertainty, thus confirming the stability of both compounds for at least 3 days.

[11] = molecular target: T1, human serum albumin (HSA); design: purchased Merck (Sigma-Aldrich) A9511; method as in Ascenzi et al., 2011; settings: ref Ascenzi et al., 2011; read-out: K d for HSA previously reported; cited from earlier work
[12] = head prints 10-3 Kbc / M-1, equimolar HSA and warfarin, reverse of the dissociation constant
[13] = HepG2, 72 h incubation, ref Lupien et al., 2018

Compound | Kd [1] [µM] | 10-3 Kbc / M-1, binding constant for the warfarin binding site [1, 12] | Kd [2] | 10-3 K’b / M-1, HSA binding constant from fluorescence intensity variation not accounted for by the decrease in lifetime [2] | IC50 [4] [µM] | Kd [5] [µM] | MIC (wt) ([6]; wt Mtb H37Rv, 2014) | further results
COC(=O)c1ccc(/C=N/NC(=O)c2ccncc2)cc1 [Compound N33, methyl (E)-4-((2-isonicotinoylhydrazineylidene)methyl)benzoate] | 54 ± 4 | 18.5 ± 1.3 10^3 M-1 | 160 µM and 200 µM and 120 µM | 5.00 ± 2.50 10^3 M-1 | > 25 | 80 ± 60 | 1.06 ^a µM | log P o/w ± SD ([3]; ref Martins et al., 2014): 1.32 ± 0.06 ^c; 10-3 K’’b / M-1, HSA binding constant from the variation in amplitude-weighted mean fluorescence lifetime [5]: 12.5 ± 9.4 10^3 M-1
CN(C)CCCN1c2ccccc2Sc2ccc(Cl)cc21 [Chlorpromazine, reference compound] | – | – | – | – | 13.9 | – | – | IC50 ([7]; same cell line (HepG2), 24 h incubation, ref Wang et al., 2002): 34.7 µM
COC(=O)c1ccc(CNNC(=O)c2ccncc2)cc1 [Compound N33red, methyl 4-((2-isonicotinoylhydrazinyl)methyl)benzoate] | 900 ± 300 | – | 600 µM (2×) and 560 µM | 1.77 ± 0.65 10^3 M-1 | > 200 | – | – | Kd ([1]; 10-3 Kbc / M-1, binding constant for the warfarin binding site, head prints 10-3 Kbc / M-1, equimolar HSA and warfarin, reverse of the dissociation constant): 746 µM; MIC [8]: 2 µM (≈ 0.571 µg/mL); MIC (wt) [8]: 0.6; activity against the wild-type strain [8]: active; logP [9]: 1.33 ± 0.04; stability in aqueous solution ([10]; 48 h): at least 48 h; stability in aqueous solution ([10]; 3 days): at least 3 days; fluctuation of the absorption spectra in the UV region [10]: less than 1.2%
CCCCCCCCCC(=O)NNC(=O)c1ccncc1 [INH-C10, N′-decanoylisonicotinoylhydrazide] | 400 ± 200 | 2.43 ± 0.86 10^3 M-1 | 46 µM and 50 µM and 70 µM | 18.6 ± 5.58 10^3 M-1 | > 25 | 120 ± 3 | 0.38 ^a µM | log P o/w ± SD ([3]; ref Ràfols et al., 2012): 3.5 ± 0.2 ^b; 10-3 K’’b / M-1, HSA binding constant from the variation in amplitude-weighted mean fluorescence lifetime [5]: 8.33 ± 0.21 10^3 M-1
COc1nc2ccc(Br)cc2cc1[C@@H](c1ccccc1)[C@@](O)(CCN(C)C)c1cccc2ccccc12 [bedaquiline] | – | – | – | – | – | – | – | IC50 [7, 13]: 17.4 µM
O=C(N/N=C/c1ccc(Oc2ccccc2)cc1)c1ccncc1 [Compound N34, (E)-N'-(4-phenoxybenzylidene)isonicotinohydrazide] | 128 ± 5 | 7.8 ± 0.3 10^3 M-1 | 130 µM and 110 µM and 70 µM | – | > 200 | 521 | 0.95 ^a µM | –
CO[C@H]1/C=C/O[C@@]2(C)Oc3c(C)c(O)c4c(O)c(c(/C=N/N5CCN(C)CC5)c(O)c4c3C2=O)NC(=O)/C(C)=C\C=C\[C@H](C)[C@H](O)[C@@H](C)[C@@H](O)[C@@H](C)[C@H](OC(C)=O)[C@@H]1C [Rifampin] | – | – | – | – | – | – | – | IC50 ([7]; ref Vahdati-Mashhadian et al., 2013): 25.5 µM
NNC(=O)c1ccncc1 [INH, isonicotinoylhydrazide, reference compound] | 4550 ± 50 | 0.22 ± 0.01 10^3 M-1 | 2.72 mM (2×) and 1.65 mM | 0.37 ± 0.01 10^3 M-1 | > 200 | – | 0.29 ^a µM | Kd ([2]; K d for HSA, fluorescence intensity corrected for inner filter effects, steady-state fluorescence, text and Figure S7): ~1000 µM; Kd [11]: 390 µM; log P o/w ± SD ([3]; ref Ràfols et al., 2012): −0.85 ± 0.01 ^b; effect on HepG2 cell viability ([4]; up to 200 µM, 72 h): did not significantly affect HepG2 cell viability; MIC (wt) ([6]; Table S1, 2014 (per Table 2)): 0.04 g/mL (≈ 292 mM)
C[C@]1(COc2ccc(N3CCC(Oc4ccc(OC(F)(F)F)cc4)CC3)cc2)Cn2cc([N+](=O)[O-])nc2O1 [delamanid] | – | – | – | – | – | – | – | IC50 [7, 13]: 98.9 µM
O=C(NNCc1ccc(Oc2ccccc2)cc1)c1ccncc1 [Compound N34red, N'-(4-phenoxybenzyl)isonicotinohydrazide] | 340 ± 20 | 2.99 ± 0.17 10^3 M-1 | 150 µM and 140 µM and 90 µM | – | 48.5 | 730 | – | MIC [8]: 1 µM (≈ 0.319 µg/mL); MIC (wt) [8]: 0.3; activity against the wild-type strain [8]: active; logP [9]: 2.6 ± 0.2; stability in aqueous solution ([10]; 48 h): at least 48 h; stability in aqueous solution ([10]; 3 days): at least 3 days; fluctuation of the absorption spectra in the UV region [10]: less than 2.5%
